From ChEMBL document CHEMBL1153483, “Synthesis and evaluation of novel substituted 5-hydroxycoumarin and pyranocoumarin derivatives exhibiting significant antiproliferative activity against breast cancer cell lines” (Bioorg Med Chem Lett, 2009)
pIC50: −log10 of the molar value.

What was measured:
MCF7 = experiment: Antiproliferative activity against human MCF7 cells after 48 hrs by MTT assay; type: functional, cell-based; details: for pIC50: Homo sapiens, MCF7, 48 h, read-out: IC50; for IC50: mcf7
MDA-MB-231 = experiment: Antiproliferative activity against human MDA-MB-231 cells after 48 hrs by MTT assay; type: functional, cell-based; details: for IC50: mda-mb-231; for pIC50: Homo sapiens, MDA-MB-231, 48 h, read-out: IC50

pIC50 (MCF7) | IC50 (MDA-MB-231) | pIC50 (MDA-MB-231) | IC50 (MCF7) | SMILES | Activity (MCF7) | Activity (MDA-MB-231)
4.86 | Not Active | – | – | CCCc1cc(=O)oc2cc(I)c3c(c12)OC(C)(C)C=C3 | – | –
5.14 | – | 4.47 | – | CC1(C)C=Cc2c(-c3cccc4c3Sc3ccccc3S4)cc3oc(=O)cc(-c4ccccc4)c3c2O1 | Dose-dependent effect | Dose-dependent effect
4.60 | Not Active | – | – | O=c1cc(-c2ccccc2)c2c(O)cc(I)cc2o1 | – | –
5.28 | – | 4.54 | – | CC1(C)C=Cc2c(-c3ccc(NS(C)(=O)=O)cc3)cc3oc(=O)cc(-c4ccccc4)c3c2O1 | Dose-dependent effect | Dose-dependent effect
4.60 | – | < 4.00 | – | Cc1cc(=O)oc2cc(-c3cc4ccccc4s3)c3c(c12)OC(C)(C)C=C3 | – | –
4.11 | Not Active | – | – | CC1(C)C=Cc2c(-c3cc4ccccc4s3)cc3oc(=O)cc(-c4ccccc4)c3c2O1 | – | –
– | Not Active | – | Not Active | CC1(C)C=Cc2c(-c3ccc(NC(=O)CCC(=O)O)cc3)cc3oc(=O)cc(-c4ccccc4)c3c2O1 | – | –
4.27 | Not Active | – | – | CC1(C)C=Cc2c(I)cc3oc(=O)cc(-c4ccccc4)c3c2O1 | – | –
4.51 | Not Active | – | – | Cc1cc(=O)oc2cc(I)c3c(c12)OC(C)(C)C=C3 | – | –
5.19 | – | 4.21 | – | Cc1cc(=O)oc2cc(-c3ccc(NS(C)(=O)=O)cc3)c3c(c12)OC(C)(C)C=C3 | Dose-dependent effect | Dose-dependent effect

The remaining lines, values behind:

SMILES | pIC50 (MCF7) | IC50 (MDA-MB-231) | pIC50 (MDA-MB-231) | IC50 (MCF7) | Activity (MCF7) | Activity (MDA-MB-231)
O=c1cc(-c2ccccc2)c2c(O)cc(-c3cccc4c3Sc3ccccc3S4)cc2o1 | 4.85 | – | 5.03 | – | Dose-dependent effect | Dose-dependent effect
Cc1cc(=O)oc2cc(I)cc(O)c12 | 4.74 | Not Active | – | – | – | –
CCCc1cc(=O)oc2cc(-c3cccc4c3Sc3ccccc3S4)cc(O)c12 | 4.84 | – | 5.10 | – | Dose-dependent effect | Dose-dependent effect
CCCc1cc(=O)oc2cc(-c3cc4ccccc4s3)cc(O)c12 | 4.65 | – | 4.30 | – | – | –
CCCc1cc(=O)oc2cc(-c3ccc(NS(C)(=O)=O)cc3)c3c(c12)OC(C)(C)C=C3 | 5.48 | – | 4.57 | – | Dose-dependent effect | Dose-dependent effect
Cc1cc(=O)oc2cc(-c3ccc(NC(=O)CCC(=O)O)cc3)c3c(c12)OC(C)(C)C=C3 | – | Not Active | – | Not Active | – | –
CCCc1cc(=O)oc2cc(-c3cccc4c3Sc3ccccc3S4)c3c(c12)OC(C)(C)C=C3 | < 4.00 | Not Active | – | – | – | –
O=c1cc(-c2ccccc2)c2c(O)cc(-c3cc4ccccc4s3)cc2o1 | 5.12 | – | 4.97 | – | Dose-dependent effect | Dose-dependent effect
CCCc1cc(=O)oc2cc(-c3ccc(NC(=O)CCC(=O)O)cc3)c3c(c12)OC(C)(C)C=C3 | – | Not Active | – | Not Active | – | –
CCCc1cc(=O)oc2cc(-c3cc4ccccc4s3)c3c(c12)OC(C)(C)C=C3 | 4.64 | Not Active | – | – | – | –
CCCc1cc(=O)oc2cc(I)cc(O)c12 | 4.57 | Not Active | – | – | – | –
